Where “and” joins values, the source holds several entries; their conditions need not be identical. Identical values can stand only once. Entries after “also recorded” stand apart in the source; their conditions may differ. Like-named read-outs stand apart in the source and are kept apart here.
What was measured:
[1] = set-up: species or system mouse (Charles River CD-1); settings: mouse, in vivo
[2] = Mouse Carrageenan Edema Test; format: in vivo, mouse (Charles River CD-1, female); settings: 3 h after carrageenan; for Paw Volume (edema volume): ± S.D.
Protocol: The basic experimental procedure was adapted from Sophia et al., J. Pharma. Exper. Ther. 186:646, 1973. Charles Rivier CD-1 female mice (20-25 g) were given a dose of either Δ^1 -THC-7-oic-acid, indomethacin or vehicle (control). All compounds were administered orally in a 20 ul volume of peanut oil. One hour later, 0.05 ml of a 1% solution of calcium carrageenan in saline was injected subcutaneously into the plantar surface of the right hind paw. The volume of the injected foot to the level of the lateral malleolus was measured by water displacement immediately before oral drug administration and again three hours after carrageenan injection. The difference between the two measurements was called edema volume. The effectiveness of each compound was analyzed in the following manner. For Δ^1 -THC-7-oic-acid, the mean paw volumes, before and after the metabolite was administered, were statistically compared by one-way ANOVA (analysis of variance) and Fisher PLSD Scheffe t-tests. For indomethacin, the mean paw volumes, pre- and postdrug, were statistically compared using the student's t-test. The percent inhibition of edema volume was obtained from the ratio of the predrug volume to the postdrug volume (Table II).

Rat Ulcerogenicity Test = format: in vivo, rat (Charles River CD); settings: for Incidence (number of rats with lesions/total tested) / Mean Score of gastric mucosal lesions: stomach tube, 1 h; for Mean Score of gastric mucosal lesions: scale 0 (normal mucosa) to 3 (erosions longer than 5 mm or confluent hemorrhages)
Protocol: Experimental groups of 5-11 rats (Charles River CD) were fasted for 24 hours before the administration of either aspirin, Δ^1 -THC-7-oic-acid or indomethacin by a rubber stomach tube (Rusch No. 8). The animals were killed 1 hour later by carbon dioxide asphyxiation. At that time, 4 ml of 10% aqueous buffered formaldehyde (formalin) was injected directly into the stomach of each animal. This in situ intraluminal fixation with formalin was especially critical for the assessment of small gastric erosions induced by aspirin since the overlying hemorrhage could easily be removed by rinsing the unfixed stomach. After 5 minutes of in situ fixation, the stomach and proximal duodenum were removed, opened along the greater curvature, pinned on a cork with mucosa upward, and immersed in 10% formaldehyde until further processing (Szabo, S. et al, J. Pharmacol. Meth. 13:59-66, 1985). The gastric lesions were then evaluated by direct visual inspection.
For comparative purposes, a semiquantitative scale of 0-3 was used to assess the extent of gastric mucosal lesions (Scabo et al., 1981, 1983). According to this scale, a score of 0 indicates a normal mucosa; 1 represents the appearance of between 1 and 4 small petechiae; 2 indicates the presence of 5 or more petechiae or hemmorhagic streaks up to 4 mm in length; 3 represents the appearance of erosions longer than 5 mm or confluent hemorrhages.

[3] = humans; cited from earlier work
[4] = rhesus monkey; cited from earlier work
[5] = test system: prostaglandin synthetase system; settings: variety of models; cited from earlier work
prostaglandin synthesis = settings: metabolite added to culture medium prior to THC exposure; cited from earlier work

| Compound | analgesic (pain-relieving) effect / potency relative to naproxen ([1]; po) | % Inhibition of Edema Volume ([2]; 20 mg/kg oral) [%] | Paw Volume (edema volume) ([2]; 20 mg/kg oral) [µL] | % Inhibition of Edema Volume ([2]; 40 mg/kg oral) [%] | Paw Volume (edema volume) ([2]; 40 mg/kg oral) [µL] | ulcer / gastric lesion formation (in words) (Rat Ulcerogenicity Test; 50 mg/kg, directly into the stomach) | Incidence (number of rats with lesions/total tested) (Rat Ulcerogenicity Test; 50 mg/kg) | Mean Score of gastric mucosal lesions (Rat Ulcerogenicity Test; 50 mg/kg) | behavioral activity and cardiovascular effects [3] | behavioral activity and cardiovascular effects [4] | inhibition of the prostaglandin synthetase system [5] | antagonism of the stimulatory effect of THC on prostaglandin synthesis (prostaglandin synthesis) | Latency (percent change of the mean reaction time compared to predrug values) [1] | Incidence (number of rats with lesions/total tested) (Rat Ulcerogenicity Test; 10 mg/kg) | Mean Score of gastric mucosal lesions (Rat Ulcerogenicity Test; 10 mg/kg) | Incidence (number of rats with lesions/total tested) (Rat Ulcerogenicity Test; 20 mg/kg) | Mean Score of gastric mucosal lesions (Rat Ulcerogenicity Test; 20 mg/kg) | gastric lesions / gastrointestinal damage (in words) (Rat Ulcerogenicity Test; 100 mg/kg, half the therapeutic dose, into the stomach) | Incidence (number of rats with lesions/total tested) (Rat Ulcerogenicity Test; 100 mg/kg) | Mean Score of gastric mucosal lesions (Rat Ulcerogenicity Test; 100 mg/kg) |
| --- | --- | --- | --- | --- | --- | --- | --- | --- | --- | --- | --- | --- | --- | --- | --- | --- | --- | --- | --- | --- |
| CCCCCc1cc(O)c2c(c1)OC(C)(C)[C@@H]1CCC(C(=O)O)=CC21 (single isomer, unassigned) [Δ^1 -THC-7-oic-acid] | merely equivalent to that of naproxen; also recorded: exhibits analgesic activity with a potency similar to that of naproxen | 53 | 9 ± 12 | 79 | 4 ± 13 | did not induce ulcer formation; also recorded: does not induce the formation of gastric lesions | 0/10 | 0.0 | did not show the behavioral activity or the cardiovascular effects characteristic of the parent substance, THC | did not show the behavioral activity or the cardiovascular effects characteristic of the parent substance, THC | potent inhibitor of the prostaglandin synthetase system | dramatic lowering of the stimulatory effect of THC on prostaglandin synthesis | – | – | – | – | – | – | – | – |
| COc1ccc2c(c1)c(CC(=O)O)c(C)n2C(=O)c1ccc(Cl)cc1 [Indomethacin, reference compound] | – | 100 | -13 ± 17 | – | – | – | – | – | – | – | – | – | 52.7 and 51.1 | 2/5 | 0.6 | 6/11 | 0.77 | – | – | – |
| CC(=O)Oc1ccccc1C(=O)O [Aspirin] | – | – | – | – | – | – | – | – | – | – | – | – | – | – | – | – | – | induced the formation of gastric lesions in each test animal; also recorded: each of the experimental animals experiences gastrointestinal damage | 10/10 | 1.9 |

Source: patent US4847290A, “Delta 1-thc-7-oic acid and analgesic and anti-inflammatory agents” (priority 1987, dated 1989)
